From patent publication US10072025B2, “Ethyl N-boc piperidinyl pyrazolo pyridones as Janus kinase inhibitors” (Merck Sharp & Dohme Corp., priority 2014, dated 2018) come the findings set out here.

Where two headings read alike, the source gives them in different places.

One assay has as its target JAK1 (Homo sapiens (Human), UniProt P23458). Briefly: Jak Biochemical HTRF Assay (JAK1). The method, then: (§1) Jak Biochemical HTRF Assay Protocol
(§2) The ability of compounds to inhibit the activity of JAK1, JAK2, JAK3, and Tyk2 was measured using a recombinant purified GST-tagged catalytic domain for each enzyme (Invitrogen JAK1 #M4290, JAK2 #M4290, JAK3 #M4290, Tyk2 #M4290) in an HTRF format biochemical assay. […] The basic assay protocol is as follows: First, 250 nL of diluted compounds in DMSO were dispensed into the wells of a dry 384-well Black plate (Greiner #781076) using a Labcyte Echo 555 acoustic dispenser. Subsequent reagent additions employed an Agilent Bravo. Next, 18 μL of 1.11× enzyme and 1.11× substrate in 1× assay buffer (Invitrogen kinase buffer # PV3189, 2 mM DTT, 0.05% BSA) were added to the wells and shaken and then preincubated for 30 minutes at room temperature to allow compound binding to equilibrate. After equilibration, 2 μL of 10×ATP in 1× assay buffer was added to initiate the kinase reaction and the plates were shaken and then incubated at room temperature for 120 minutes. At the end of the incubation, 20 μL of 2× stop buffer (streptavidin-Dylight 650 (Thermo #84547B/100 mL), Eu-tagged pY20 antibody (Perkin Elmer #AD0067), EDTA, HEPES, and Triton) was added to quench the reaction. Plates were shaken and centrifuged and then incubated 60 minutes at room temperature and then read on a Perkin Elmer Envision (Xex=337 nm, λem=665 and 615 nm, TRF delay time=20 μs). HTRF signal=10,000*665 nm reading/615 nm reading. After normalization to untreated controls, the percent inhibition of the HTRF signal at each compound concentration was calculated. The plot of percent inhibition versus the log of compound concentration was fit with a 4-parameter dose response equation to calculate IC50 values.

The target of the next assay is JAK2 (Homo sapiens (Human), UniProt O60674). The experiment in a line: Jak Biochemical HTRF Assay (JAK2). Particulars: recombinant purified GST-tagged catalytic domain, [ATP] 8.5 μM, [E] 0.052 nM. How it is done: as §1, §2
Setting [1] is: recombinant purified GST-tagged catalytic domain, HTRF, [ATP] 31.8 μM, [E] 1.405 nM.

Chain of JAK2 (O60674 849-1124): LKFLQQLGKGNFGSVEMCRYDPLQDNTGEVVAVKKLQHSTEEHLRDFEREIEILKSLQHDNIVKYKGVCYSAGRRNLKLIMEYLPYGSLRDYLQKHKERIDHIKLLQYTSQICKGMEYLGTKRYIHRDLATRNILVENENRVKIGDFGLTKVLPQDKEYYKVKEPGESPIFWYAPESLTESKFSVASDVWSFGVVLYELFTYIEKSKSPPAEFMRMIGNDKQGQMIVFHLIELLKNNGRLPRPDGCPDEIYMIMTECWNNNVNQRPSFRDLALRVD
Chain of JAK1 (P23458 875-1153): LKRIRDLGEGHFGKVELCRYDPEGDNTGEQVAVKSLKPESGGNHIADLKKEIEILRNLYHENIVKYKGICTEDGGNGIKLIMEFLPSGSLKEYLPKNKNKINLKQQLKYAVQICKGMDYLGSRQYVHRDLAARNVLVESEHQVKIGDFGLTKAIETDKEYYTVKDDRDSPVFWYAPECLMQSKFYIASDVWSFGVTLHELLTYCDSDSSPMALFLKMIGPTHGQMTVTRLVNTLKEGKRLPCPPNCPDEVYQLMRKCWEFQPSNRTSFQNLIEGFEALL

In the case of `CCc1cc(Nc2nn(C3(CC)CCN(C(=O)OC(C)(C)C)CC3)c3cc[nH]c(=O)c23)ccc1C(=O)N1CCSCC1` [Example 2-29, tert-butyl 4-ethyl-4-(3-(3-ethyl-4-(thiomorpholine-4-carbonyl)phenylamino)-4-oxo-4,5-dihydropyrazolo[4,3-c]pyridin-1-yl) piperidine-1-carboxylate], the IC50 at JAK1 (setting [1]) is 1790 pM; on JAK2, 2720 pM.
In the case of `CCC1(n2nc(Nc3ccc(C(=O)N4C[C@H]5C[C@@H](C4)O5)c(C)c3)c3c(=O)[nH]ccc32)CCN(C(=O)OC(C)(C)C)CC1` [Example 3-6, tert-butyl 4-ethyl-4-[3-({3-methyl-4-[(1R,5S)-6-oxa-3-azabicyclo[3.1.1]hept-3-ylcarbonyl]phenyl}amino)-4-oxo-4,5-dihydro-1H-pyrazolo[4,3-c]pyridin-1-yl]piperidine-1-carboxylate], the IC50 came to 300 pM against JAK1 and 430 pM at JAK2.
Regarding `CCC1(n2nc(Nc3ccc(C(=O)N4CCOC(=O)C4)c(C)c3)c3c(=O)[nH]ccc32)CCN(C(=O)OC(C)(C)C)CC1` [Example 3-1, tert-butyl-4-ethyl-4-(3-((3-methyl-4-(2-oxomorpholine-4-carbonyl)phenyl)amino)-4-oxo-4,5-dihydro-1H-pyrazolo[4,3-c]pyridin-1-yl)piperidine-1-carboxylate], the IC50 on JAK1 (setting [1]) is 250 pM; on JAK2, 800 pM.
For `CCC1(n2nc(Nc3ccc(C4CCN(CC(F)(F)F)CC4)cc3)c3c(=O)[nH]ccc32)CCN(C(=O)OC(C)(C)C)CC1` [Example 2-3, tert-butyl 4-ethyl-4-(4-oxo-3-(4-(1-(2,2,2-trifluoroethyl)piperidin-4-yl)phenylamino)-4,5-dihydropyrazolo [4,3-c]pyridin-1-yl) piperidine-1-carboxylate], in that order: 10200 pM and 71300 pM.
Take `CCC1(n2nc(Nc3ccc(S(=O)(=O)N4CCC[C@H]4C)cc3)c3c(=O)[nH]ccc32)CCN(C(=O)OC(C)(C)C)CC1` (single isomer, unassigned) [Example 2-39, (R or S)-tert-butyl 4-ethyl-4-(3-(4-(2-methylpyrrolidin-1-ylsulfonyl)phenylamino)-4-oxo-4,5-dihydropyrazolo[4,3-c]pyridin-1-yl) piperidine-1-carboxylate]: the IC50 on JAK1 (setting [1]) is 2130 pM.
For the compound `CCC1(n2nc(Nc3ccc([C@]4(C(F)(F)F)CCCN4)cc3)c3c(=O)[nH]ccc32)CCN(C(=O)OC(C)(C)C)CC1` (single isomer, unassigned) [Example 2-35, (S or R)-tert-butyl 4-ethyl-4-(4-oxo-3-(4-(2-(trifluoromethyl)pyrrolidin-2-yl)phenylamino)-4,5-dihydropyrazolo[4,3-c]pyridin-1-yl) piperidine-1-carboxylate], the IC50 at JAK1 (setting [1]) amounted to 2820 pM; on JAK2 it was 3550 pM.
As for `CCC1(n2nc(Nc3ccc(C(=O)N4[C@H](C)COC[C@H]4C)c(C)c3)c3c(=O)[nH]ccc32)CCN(C(=O)OC(C)(C)C)CC1` (single isomer, unassigned) [Example 2-20, tert-butyl 4-(3-(4-((3R,5R or 3S,5S)-3,5-dimethylmorpholine-4-carbonyl)-3-methylphenylamino)-4-oxo-4,5-dihydropyrazolo[4,3-c]pyridin-1-yl)-4-ethylpiperidine-1-carboxylate], the IC50 at JAK1 (setting [1]) worked out at 790 pM.
For the compound `CCC1(n2nc(Nc3ccc(C(=O)N4CCCC4)c(C)c3)c3c(=O)[nH]ccc32)CCN(C(=O)OC(C)(C)C)CC1` [Example 2-33, tert-butyl 4-ethyl-4-(3-(3-methyl-4-(pyrrolidine-1-carbonyl)phenylamino)-4-oxo-4,5-dihydropyrazolo[4,3-c]pyridin-1-yl) piperidine-1-carboxylate], the IC50 at JAK1 (setting [1]) turned out to be 730 pM; on JAK2 it was 1060 pM.
On to `CCC1(n2nc(Nc3cccc(CC#N)c3)c3c(=O)[nH]ccc32)CCN(C(=O)OC(C)(C)C)CC1` [Example 2-17, tert-butyl 4-(3-((3-(cyanomethyl)phenyl)amino)-4-oxo-4,5-dihydro-1H-pyrazolo [4,3-c]pyridin-1-yl)-4-ethylpiperidine-1-carboxylate], for which the values for the IC50 on JAK1 (setting [1]) and on JAK2 were 530 pM and 3370 pM, respectively.
Take `CCC1(n2nc(Nc3ccc(C(=O)N4CCCOCC4)c(C)c3)c3c(=O)[nH]ccc32)CCN(C(=O)OC(C)(C)C)CC1` [Example 3-10, tert-butyl 4-ethyl-4-(3-{[3-methyl-4-(1,4-oxazepan-4-ylcarbonyl)phenyl]amino}-4-oxo-4,5-dihydro-1H-pyrazolo[4,3-c]pyridin-1-yl) piperidine-1-carboxylate]: the values for the IC50 on JAK1 (setting [1]) and at JAK2 were 290 pM and 430 pM, respectively.
As for `CCC1(n2nc(Nc3ccc(C(O)C(F)(F)F)cc3)c3c(=O)[nH]ccc32)CCN(C(=O)OC(C)(C)C)CC1` (stereo not shown) [Example 2-43, tert-butyl 4-ethyl-4-(4-oxo-3-((4-(2,2,2-trifluoro-1-hydroxyethyl)phenyl)amino)-4,5-dihydro-1H-pyrazolo[4,3-c]pyridin-1-yl) piperidine-1-carboxylate], the IC50 at JAK1 (setting [1]) came to 900 pM; at JAK2, 2910 pM.
Regarding `CCC1(n2nc(Nc3ccc(S(=O)(=O)N4CCC[C@@H]4C)cc3)c3c(=O)[nH]ccc32)CCN(C(=O)OC(C)(C)C)CC1` (single isomer, unassigned) [Example 2-38, (S or R)-tert-butyl 4-ethyl-4-(3-(4-(2-methylpyrrolidin-1-ylsulfonyl)phenylamino)-4-oxo-4,5-dihydropyrazolo[4,3-c]pyridin-1-yl) piperidine-1-carboxylate], the IC50 at JAK1 (setting [1]) was determined as 2380 pM.
The same measure, in the same setting: the result for `CCC1(n2nc(Nc3ccc(C(=O)N4[C@@H](C)COC[C@@H]4C)c(C)c3)c3c(=O)[nH]ccc32)CCN(C(=O)OC(C)(C)C)CC1` (single isomer, unassigned) [Example 2-19, tert-butyl 4-(3-(4-((3S,5S or 3R,5R)-3,5-dimethylmorpholine-4-carbonyl)-3-methylphenylamino)-4-oxo-4,5-dihydropyrazolo[4,3-c]pyridin-1-yl)-4-ethylpiperidine-1-carboxylate] reads 850 pM.
In the case of `CCC1(n2nc(Nc3ccc(C(=O)N4CCCOC(C)C4)c(C)c3)c3c(=O)[nH]ccc32)CCN(C(=O)OC(C)(C)C)CC1` (single isomer, unassigned) [Example 3-23, tert-butyl 4-ethyl-4-[3-({3R or 3S-methyl-4-[(2-methyl-1,4-oxazepan-4-yl)carbonyl]phenyl}amino)-4-oxo-4,5-dihydro-1H-pyrazolo [4,3-c]pyridin-1-yl] piperidine-1-carboxylate], at JAK2, the IC50 was found to be 700 pM.
As to `CCC1(n2nc(Nc3ccc(C(=O)N4[C@H](C)COC[C@@H]4C)c(C)c3)c3c(=O)[nH]ccc32)CCN(C(=O)OC(C)(C)C)CC1` [Example 2-18, tert-butyl 4-(3-(4-((3S,5R)-3,5-dimethylmorpholine-4-carbonyl)-3-methylphenylamino)-4-oxo-2,3,4,5-tetrahydropyrazolo[4,3-c]pyridin-1-yl)-4-ethylpiperidine-1-carboxylate], on JAK1 (setting [1]), the IC50 amounted to 610 pM.
`CCC1(n2nc(Nc3ccc(C(=O)N4CCCOC(C)C4)c(C)c3)c3c(=O)[nH]ccc32)CCN(C(=O)OC(C)(C)C)CC1` (single isomer, unassigned) [Example 3-22, tert-butyl 4-ethyl-4-[3-({3R or 3S-methyl-4-[(2-methyl-1,4-oxazepan-4-yl)carbonyl]phenyl}amino)-4-oxo-4,5-dihydro-1H-pyrazolo [4,3-c]pyridin-1-yl] piperidine-1-carboxylate]: the IC50 on JAK2 was 870 pM.
